Two molecules from patent US20110223177A1, “TREATMENT OF FIBROTIC EYE DISORDERS” (UNIVERSITY OF EAST ANGLIA, priority 2008, published 2011) can be followed below.

“Also recorded” adds a separate entry of the source.

Experiment [1] deals with human lens epithelial cell line FHL124. Briefly: FHL124 patch growth/contraction assay. The format is cell-based. Particulars: FHL 124 patches. How it is done:
FIG. 3. TGF-β-induced matrix contraction is suppressed by the MLCK inhibitor ML7. FHL 124 cells were seeded to form patches and maintained in the following conditions: EMEM (Eagle's minimal essential medium—standard culture medium) supplemented with 5% FCS (fetal calf serum—control)±15 μM ML7 (myosin light chain kinase inhibitor) (Calbiochem) for a 72 hour experimental period. In the graph, each left hand bar of the bar pairs reports the result in the absence of ML7 (indicated as “−15 uM ML-7” in the key) and the right hand bar reports the result in the presence of 15 μM ML7 (indicated as “[…]” in the key). Please note that numerical data can be obtained from these patches, which can be scrutinized by statistical analysis.
FIG. 4. TGF-β-induced matrix contraction is promoted by the MLCP inhibitor tautomycin (Calbiochem). FHL 124 cells were seeded to form patches and maintained in the following conditions: EMEM (standard culture medium) supplemented with 5% FCS (control)±50 nM tautomycin (myosin phosphatase inhibitor); control+10 ng/ml TGFβ1±50 nM tautomycin; control+10 ng/ml TGFβ2±50 nM tautomycin for a 48 hour experimental period. […]
FHL124 cells were seeded at 4 sites on a tissue culture dish at 5000 cells per site and maintained in EMEM supplemented with 5% FCS until confluent regions spanning approximately 5 mm developed. […] The cells were then washed in PBS and stained with Coomassie brilliant blue (a total protein dye) for 30 minutes to enable patches to be visualised and measured. […] Images of patches were captured on a CCD camera using GeneSnap and analysed using Scion image. After the patch area was measured, PBS medium was aspirated from the culture dish and replaced with 1 ml of 70% ethanol allowing Coomassie blue dye within the cells to be dissolved. […] A 200 μl sample of dye from each dish was placed in a clear plastic 96 well microtitre plate and the absorbance read at 550 nm using a plate reader. […]

The test system of experiment [2] is phosphorylated (active) myosin in FHL124 cells. Briefly: Western blot detection of phosphorylated (active) myosin in response to TGF-β. Particulars: 15 μM ML7, 10 ng/ml TGF-β2, FHL124 cells. The format is cell-based, human. How it is done: FIG. 2. Western blot detection of phosphorylated (active) myosin in response to 10 ng/ml TGF-β2 (Sigma, Poole, Dorset, UK). The data presented are pooled from 3 separate experiment. Each left hand bar of the bar pairs reports the result in the absence of ML7 (indicated as “−15 uM ML-7” in the key) and the right hand bar reports the result in the presence of 15 μM ML7 (indicated as “+15 uM ML-7” in the key). Beta actin was used as a control for equivalent protein amounts. * Indicates a significant difference from untreated control group (p<0.05; student's t-test).
FHL-124 cells were washed with 1.5 ml PBS then lysed on ice in 0.5 mls Daubs lysis buffer; (50 mM HEPES pH 7.5, 150 mM NaCl, 1% Triton X-100, 1 mM EDTA, 10% glycerol, 10 mM sodium pyrophosphate, 2 mM sodium orthovanadate, 10 mM sodium fluoride, 250 mls ddH2O, 1 mM phenylmethylsulfonylfluoride and 10 μg/ml aprotinin. Lysates were pre-cleared by centrifuging at 13000 rpm at 4° C. for 10 min, and the protein content of the soluble fraction will be assayed by Bicinchoninic (BCA) protein assay. Equal amounts of protein per sample were loaded onto 10% SDS-PAGE gels for electrophoresis and transferred onto a polyvinylidene fluoride (PVDF) membrane with a BIO-RAD Trans-Blot semi-dry Transfer Cell. […] Gels were scanned using an HP scanjet 5470c and band intensity determined with Kodak 1D 3.5 software.
(Immunoblotting shows a protein as a band on a membrane.)

The subject of the next experiment is human lens capsular bags. Briefly: Human lens capsular bag model. The format is cell-based. The method, then: FIG. 7. The effect of MLCK inhibition (using 15 μM ML7) on cell coverage of the previously cell-free posterior capsule of human capsular bags following 7 days of culture. The data represent Mean SEM (n=4). * Indicates a significant difference from control group. N.B. Control conditions are EMEM supplemented with 5% serum and 10 ng/ml TGFβ.
FIG. 8. High (top row) and low power (bottom row) phase-contrast micrographs showing cells growing on the lens capsular bag treated with 10 ng/mL TGF-β in the presence or absence of ML7 (15 μM). Contraction (wrinkles) of the lens capsular bag is evident when treated with 10 ng/ml TGF-β alone.
The model first described by Liu, C. S. C., et al., (Invest. Ophthalmol. Vis. Sci. (1996), 37, pages, 906-914) was employed. Following removal of corneo-scleral discs for transplantation purposes, human donor eyes from the East Anglian Eye Banks, UK (obtained with full ethical approval—COREC form approved 1 Dec. 2004. Ref04/Q0102/57) were used to perform a sham cataract operation. The resulting capsular bag was then dissected free of the zonules and secured on a sterile 35 mm polymethylmethacrylate (PMMA) petri dish. […] Coverage and matrix modification of the previously cell-free posterior capsule were captured on a daily basis using low-power phase microscopy and quantified using analysis software. […]

For experiment [3], the system named is cells growing on the lens capsular bag. Briefly: Immunocytochemical analysis of capsular bags at end point. The format is cell-based, human. Particulars: 15 μM ML7, 10 ng/ml TGF-β. The method, then: FIG. 9. […] The fields of view represent 448×342 μm.
Preparations were fixed for 30 minutes in 4% formaldehyde in PBS and permeabilised in PBS containing 0.5% Triton-X100, also for 30 minutes. Anti-CPI-17 and Anti-alpha smooth muscle actin was diluted 1:100 and applied for 60 min at 35° C., followed by washing. CPI-17 was visualised with ALEXA 488-conjugated secondary antibodies (Molecular Probes, Leiden, Netherlands). The F-actin cytoskeleton was stained with Texas Red-X-phalloidin and chromatin using DAPI (Molecular Probes, Leiden, Netherlands) for 10 min at room temperature. The stained preparations were again washed extensively, floated onto microscope slides and mounted in Hydromount mounting medium (National Diagnostics, Hull, UK). Images were viewed with a Zeiss epifluorescence microscope and Axiovision software.
From the work on the cell line we chose to test ML7 i.e. the MLCK inhibitor. These studies were carried out on separate donors using a match paired format; one capsular bag was maintained in TGF-β and serum supplemented medium, while the other was maintained in TGF-β and serum supplemented medium plus 15 μM ML7. There is great consistency in cell behaviour from one eye to another from an individual donor; therefore the effects observed are due to the presence or absence of the inhibitor. […] This growth inhibition could be useful in the treatment of PCO as growth across the capsule is a critical component in the development of the condition, but this is a retardation of cell growth rather than ablation. […] In addition, we have carried out immunocytochemical analysis of the capsular bags at end point (FIG. 9).

Regarding `CO[C@H]([C@H](O)CC(=O)[C@@H](C)[C@@H](O)CC[C@@H](C)[C@@H]1O[C@]2(CC[C@@H](C)[C@H](CC[C@H](C)C(C)=O)O2)CC[C@@H]1C)[C@H](OC(=O)C[C@@H](O)C1=C(C)C(=O)OC1=O)C(C)C` [tautomycin], the TGF-β-induced matrix contraction result is reported as “speeded up the rate of contraction” in experiment [1] (50 nM tautomycin, 10 ng/ml TGFβ1 or TGFβ2, 48 hour) and “significantly increases TGF-β-induced contraction” in experiment [1] (50 nM tautomycin, 10 ng/ml TGFβ1 or TGFβ2, 48 hour, listed as Tautomycin).
`O=S(=O)(c1cccc2c(I)cccc12)N1CCCNCC1` [ML7, (5-iodonaphthalene-1-sulfonyl)homopiperazine]: the “TGFβ-induced myosin activation (phosphorylated myosin)” value in experiment [2] is reported as “significantly inhibited TGFβ-induced myosin activation”. Besides, the TGF-β-induced matrix contraction result in experiment [1] (15 μM ML7, 72 hour, EMEM + 5% FCS) is “significantly suppresses TGF-β-induced contraction; also recorded: significant reduction of TGF-β-induced contraction”. Further, in the experiment with human lens capsular bags (15 μM ML7, 10 ng/ml TGF-β), the “TGF-β-induced matrix contraction (wrinkles) of the lens capsular bag” value is recorded as “does not give rise to wrinkle formation; also recorded: can suppress TGF-β-induced matrix contraction”. The “cell coverage of the previously cell-free posterior capsule” value with human lens capsular bags (15 μM ML7, 7 days of culture, EMEM + 5% serum + 10 ng/ml TGFβ, control group 100% cover) amounted to 80%. In addition, in experiment [3], the “distribution of cell nuclei” value was “even distribution of cell nuclei”, the “general organization of the cells” value was “cobblestone appearance” and the “αSMA levels versus control bags” value is “similar”.
